Test results from PubChem BioAssay AID248 (DTP/NCI, 2004).
“And” between values parts separate entries of the source, which are not always exact repeats. Equal values may be shown once. Toxic doses and inconclusive results are not listed. Cut-off read from the data, not from the text of the source: active = T/C of 150% or more; inactive = T/C below 125%.

Tested on: L1210 leukemia ip in BDF1 mice, survival T/C
Test: NCI In Vivo Anticancer Drug Screen. Data for tumor model L1210 Leukemia (intraperitoneal) in B6D2F1 (BDF1) mice
Details: endpoint: mean survival time, higher = longer survival
Summary of the method: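 Tumor cells were implanted, animals were treated, and survival was followed. The result divides the treated measurement by the vehicle-control measurement.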

[1] = dose: 100.0 mg/kg/injection, schedule: Q04DX003 (ip), vehicle: Klucel (hydroxypropylcellulose) (HPC)
[2] = dose: 200.0 mg/kg/injection, schedule: Q04DX003 (ip), vehicle: Klucel (hydroxypropylcellulose) (HPC)
[3] = dose: 400.0 mg/kg/injection, schedule: Q04DX003 (ip), vehicle: Klucel (hydroxypropylcellulose) (HPC)
[4] = dose: 100.0 mg/kg/injection, schedule: Q01DX001 (ip), vehicle: saline
[5] = dose: 200.0 mg/kg/injection, schedule: Q01DX001 (ip), vehicle: saline
[6] = dose: 400.0 mg/kg/injection, schedule: Q01DX001 (ip), vehicle: saline
[7] = dose: 100.0 mg/kg/injection, schedule: Q01DX009 (ip), vehicle: saline with Tween-80
[8] = dose: 200.0 mg/kg/injection, schedule: Q01DX009 (ip), vehicle: saline with Tween-80
[9] = dose: 400.0 mg/kg/injection, schedule: Q01DX009 (ip), vehicle: saline with Tween-80
[10] = dose: 100.0 mg/kg/injection, schedule: Q04DX003 (ip), vehicle: saline
[11] = dose: 200.0 mg/kg/injection, schedule: Q04DX003 (ip), vehicle: saline
[12] = dose: 400.0 mg/kg/injection, schedule: Q04DX003 (ip), vehicle: saline
[13] = dose: 100.0 mg/kg/injection, schedule: Q01DX009 (ip), vehicle: Klucel (hydroxypropylcellulose) (HPC)
[14] = dose: 200.0 mg/kg/injection, schedule: Q01DX009 (ip), vehicle: Klucel (hydroxypropylcellulose) (HPC)
[15] = dose: 400.0 mg/kg/injection, schedule: Q01DX009 (ip), vehicle: Klucel (hydroxypropylcellulose) (HPC)
[16] = dose: 100.0 mg/kg/injection, schedule: Q04DX002 (ip), vehicle: saline with Tween-80
[17] = dose: 200.0 mg/kg/injection, schedule: Q04DX002 (ip), vehicle: saline with Tween-80
[18] = dose: 400.0 mg/kg/injection, schedule: Q04DX002 (ip), vehicle: saline with Tween-80

Measured: T/C

Cc1cc(C)c([N+](=O)[O-])c(C)c1C(=O)C(C)C
inactive: dose: 100.0 mg/kg/injection, schedule: Q01DX009 (ip), vehicle: other 105 % of control | [1] 96 % of control | dose: 200.0 mg/kg/injection, schedule: Q01DX009 (ip), vehicle: other 101 % of control | [2] 100 % of control | dose: 400.0 mg/kg/injection, schedule: Q01DX009 (ip), vehicle: other 95 % of control | [3] 94 % of control

ClCCN(CCCl)c1ccc(C[n+]2ccc3ccccc3c2)cc1
inactive: dose: 8.0 mg/kg/injection, schedule: Q01DX015 (ip), vehicle: carboxymethylcellulose (CMC) 109 % of control | dose: 16.0 mg/kg/injection, schedule: Q01DX015 (ip), vehicle: carboxymethylcellulose (CMC) 113 % of control | dose: 32.0 mg/kg/injection, schedule: Q01DX015 (ip), vehicle: carboxymethylcellulose (CMC) 106 % of control

CC(C)(C)CN=C(N)N
inactive: [4] 96 % of control | [5] 94 % of control | [6] 102 % of control

CCCCCCCCCCC(O)CCCCCCCCCC
inactive: [7] 96 % of control | [8] 105 % of control | [9] 93 % of control

CCOC(=O)NN1C(=O)c2cccc3c([N+](=O)[O-])ccc(c23)C1=O
inactive: dose: 12.5 mg/kg/injection, schedule: Q01DX009 (ip), vehicle: Klucel (hydroxypropylcellulose) (HPC) 105 % of control | dose: 25.0 mg/kg/injection, schedule: Q01DX009 (ip), vehicle: Klucel (hydroxypropylcellulose) (HPC) 94 % of control | dose: 50.0 mg/kg/injection, schedule: Q01DX009 (ip), vehicle: Klucel (hydroxypropylcellulose) (HPC) 96 % of control

CC(=O)NC(=O)NC(C)=O
inactive: [4] 95 % of control | dose: 100.0 mg/kg/injection, schedule: Q01DX009 (ip), vehicle: saline 100 % of control | [10] 99 % of control | [5] 94 % of control | dose: 200.0 mg/kg/injection, schedule: Q01DX009 (ip), vehicle: saline 105 % of control | [11] 97 % of control | [6] 97 % of control | dose: 400.0 mg/kg/injection, schedule: Q01DX009 (ip), vehicle: saline 95 % of control | [12] 100 % of control

Cc1cccc(NC(=S)NCc2ccco2)c1
inactive: [13] 96 % of control | [14] 93 % of control | [15] 91 % of control

CS(=O)(=O)OCCN(CCOS(C)(=O)=O)c1ccc([N+](=O)[O-])c(F)c1
inactive: dose: 50.0 mg/kg/injection, schedule: Q01DX001 (ip), vehicle: saline 110 % of control | [4] 112 % of control | [5] 115 % of control | [6] 105 % of control

Cc1ccc(Cl)cc1NC(=O)Nc1cccc2c(O)cccc12
inactive: dose: 100.0 mg/kg/injection, schedule: Q01DX001 (ip), vehicle: saline with Tween-80 100 % of control | [7] 90 % of control and 92 % of control | [16] 94 % of control and 87 % of control | dose: 100.0 mg/kg/injection, schedule: Q04DX003 (ip), vehicle: saline with Tween-80 88 % of control | dose: 200.0 mg/kg/injection, schedule: Q01DX001 (ip), vehicle: saline with Tween-80 89 % of control | [8] 103 % of control and 90 % of control | [17] 97 % of control and 89 % of control | dose: 200.0 mg/kg/injection, schedule: Q04DX003 (ip), vehicle: saline with Tween-80 98 % of control | dose: 400.0 mg/kg/injection, schedule: Q01DX001 (ip), vehicle: saline with Tween-80 98 % of control | [9] 95 % of control | [18] 94 % of control and 95 % of control | dose: 400.0 mg/kg/injection, schedule: Q04DX003 (ip), vehicle: saline with Tween-80 101 % of control

Cc1ccc(C)c(CCCCS(N)(=O)=O)c1
inactive: [1] 100 % of control | [2] 104 % of control | [3] 100 % of control

C1=CC2CCC1CC2c1ccccc1 (stereo unspecified)
inactive: [4] 104 % of control | [5] 105 % of control | [6] 114 % of control

CCCCCCCCCCCCn1cnc2c(N)ncnc21
inactive: dose: 12.5 mg/kg/injection, schedule: Q01DX005 (ip), vehicle: other 101 % of control | dose: 25.0 mg/kg/injection, schedule: Q01DX005 (ip), vehicle: other 96 % of control | dose: 50.0 mg/kg/injection, schedule: Q01DX005 (ip), vehicle: other 95 % of control | dose: 100.0 mg/kg/injection, schedule: Q01DX005 (ip), vehicle: other 96 % of control | dose: 200.0 mg/kg/injection, schedule: Q01DX005 (ip), vehicle: other 93 % of control

O=C(N/N=C/c1cccc([N+](=O)[O-])c1)C(O)C(O)C(O)C(O)CO (stereo unspecified)
inactive: dose: 100.0 mg/kg/injection, schedule: Q01DX001 (ip), vehicle: carboxymethylcellulose (CMC) 97 % of control | dose: 100.0 mg/kg/injection, schedule: Q01DX009 (ip), vehicle: carboxymethylcellulose (CMC) 102 % of control | dose: 100.0 mg/kg/injection, schedule: Q04DX002 (ip), vehicle: carboxymethylcellulose (CMC) 100 % of control | dose: 100.0 mg/kg/injection, schedule: Q04DX003 (ip), vehicle: carboxymethylcellulose (CMC) 94 % of control | dose: 200.0 mg/kg/injection, schedule: Q01DX001 (ip), vehicle: carboxymethylcellulose (CMC) 104 % of control | dose: 200.0 mg/kg/injection, schedule: Q01DX009 (ip), vehicle: carboxymethylcellulose (CMC) 104 % of control and 91 % of control | dose: 200.0 mg/kg/injection, schedule: Q04DX002 (ip), vehicle: carboxymethylcellulose (CMC) 96 % of control and 106 % of control | dose: 200.0 mg/kg/injection, schedule: Q04DX003 (ip), vehicle: carboxymethylcellulose (CMC) 100 % of control | dose: 400.0 mg/kg/injection, schedule: Q01DX001 (ip), vehicle: carboxymethylcellulose (CMC) 95 % of control | dose: 400.0 mg/kg/injection, schedule: Q01DX009 (ip), vehicle: carboxymethylcellulose (CMC) 94 % of control | dose: 400.0 mg/kg/injection, schedule: Q04DX002 (ip), vehicle: carboxymethylcellulose (CMC) 103 % of control and 91 % of control | dose: 400.0 mg/kg/injection, schedule: Q04DX003 (ip), vehicle: carboxymethylcellulose (CMC) 94 % of control

N#CC(CC(=O)c1ccc2c(c1)OCO2)c1ccc2c(c1)OCO2 (stereo unspecified)
inactive: [13] 101 % of control | [1] 95 % of control | [14] 101 % of control | [2] 98 % of control | [15] 97 % of control | [3] 101 % of control

O=C1C=C(O)c2ccccc2C1=O
inactive: dose: 10.0 mg/kg/injection, schedule: Q01DX Z (ip), vehicle: other 98 % of control | dose: 12.5 mg/kg/injection, schedule: Q04DX003 (ip), vehicle: saline with Tween-80 98 % of control | dose: 20.0 mg/kg/injection, schedule: Q01DX Z (ip), vehicle: other 88 % of control | dose: 25.0 mg/kg/injection, schedule: Q04DX003 (ip), vehicle: saline with Tween-80 106 % of control | dose: 30.0 mg/kg/injection, schedule: Q01DX Z (ip), vehicle: other 90 % of control | dose: 31.2 mg/kg/injection, schedule: Q01DX Z (ip), vehicle: other 97 % of control | dose: 40.0 mg/kg/injection, schedule: Q01DX Z (ip), vehicle: other 90 % of control | dose: 50.0 mg/kg/injection, schedule: Q04DX003 (ip), vehicle: saline with Tween-80 92 % of control

CC(=O)CCSC(C)C
inactive: dose: 50.0 mg/kg/injection, schedule: Q01DX009 (ip), vehicle: saline with Tween-80 89 % of control | [7] 92 % of control | [8] 92 % of control

Oc1ccc(Br)cc1C=Nc1ccccc1
inactive: [16] 96 % of control | [17] 104 % of control | [18] 100 % of control

CC(C)NP(=O)(NC(C)C)OC1CC(C)(C)N(O)C(C)(C)C1
inactive: dose: 6.25 mg/kg/injection, schedule: Q01DX001 (ip), vehicle: water 92 % of control | dose: 12.5 mg/kg/injection, schedule: Q01DX001 (ip), vehicle: water 96 % of control | dose: 25.0 mg/kg/injection, schedule: Q01DX001 (ip), vehicle: water 99 % of control | dose: 50.0 mg/kg/injection, schedule: Q01DX001 (ip), vehicle: water 94 % of control

C[Si](C)(C)n1ccnc1
inactive: [10] 100 % of control | [11] 105 % of control | [12] 94 % of control
